Measured values: patent US10857155B2, “Compounds targeting proteins, compositions, methods, and uses thereof” (BioTheryX, Inc., priority 2017, dated 2020)

Columns and labels:
Type in all cases: cell-based
[1] = tested on: IL-1β; test: IL-1 beta in LPS-induced PBMCs / CD14+ monocytes, Meso Scale assay; details: 0.1 μM
Method: (§1) FIG. 2 represents the activity against IL-1-beta in CD14 monocytes, plated in 96 well plates and pretreated with Compounds 1, 2, or 3, or pomalidomide, for 1 h and then induced with 100 ng/mL LPS for 18-24 h. Cytokines were measured according to MesoScale protocol. Negative control wells were treated with DMSO. Compound activity was measured as a percentage of LPS-induced activity.
(§2) Either frozen primary blood mononuclear cells (PBMCs) or frozen CD14+ mobilized peripheral blood monocytes were purchased from AllCells (PB003F, Normal Peripheral Blood MNC (Alameda, Calif.)). Cells were quick thawed, washed 1-time with RPMI-1640 (10% FBS/1% Pen-Strep) and plated in 96 well plates at 200,000 cells per well. Cells were pretreated with DMSO only, pomalidomide or the indicated compounds for 1 h and then induced with 100 ng/mL lipopolysaccharide (LPS) for 18-24 h. The supernatant was analyzed for IL-1 beta, IL-6, and TNF-alpha, using Meso Scale assay according to manufacturer's protocol. The negative control wells were treated with DMSO.
(§3) Compound activity is measured as fold difference from the DMSO control. Compounds 1, 2, and 3 each reduced expression of IL-1-b in LPS-stimulated PBMCs by over 80% at 1 uM, relative to a just under 80% reduction with pomalidomide at 10 μM (FIG. 2).

[2] = tested on: IL-2; test: IL-2 in PBMCs on anti-human CD3 (OKT3) coated plates, Mesoscale analysis; details: PBMC, 24 h, 0.1 μM, relative to DMSO control, read-out: Fold Change IL-2
Method: For the IL-2 analysis, 96 well plates were precoated with 1 μg/mL anti-human CD3 antibody (OKT3, eBioscience Inc., San Diego, Calif.). After washing with PBS, compounds were added (50 μL/well) followed by PBMCs diluted at 3-4 million cells/mL (150 μL/well). Plates were incubated for 24 h and the supernatants collected for Mesoscale IL-2 analysis.
as §3

[3] = tested on: H1048 cells; test: Cell viability assay (CellTiter-Glo), H1048 cells; details: Homo sapiens, NCI-H1048, 72 h, 3 days; for viability at 1 µM: H1048, 1 μM; for viability at 10 µM: H1048, 10 μM
Method: (§4) Molm-13 cells were cultivated in RPMI-1640 (10% FBS/1% pen-strep) and were plated in white walled 96-well plates at 20,000 cells/well. H1048 cells were cultured in DMEM:F12 media supplemented with 5% fetal bovine serum, insulin, transferrin, sodium selenite, hydrocortisone, estradiol, penicillin and streptomycin, and were plated in white walled 96-well plates at 20,000 cells/well.
(§5) Cells were treated with compound at the indicated concentration or DMSO (control) and the cultures were incubated for 3 days at 37° C. and 5% CO2. Following the incubation period, 100 μL of CellTiterGlow (CTG) reagent (CellTiter-Glo® Luminescent Cell Viability Assay, Promega (Madison, Wis.)) was added to each well. Following a 10 min incubation with shaking, luminescence was measured using a Victor Wallac Luminometer.

[4] = tested on: TNF-α; test: TNF-alpha in LPS-induced PBMCs / CD14+ monocytes, Meso Scale assay; details: 0.1 μM
Method: as §1, with “FIG. 4” for “FIG. 2”, “against TNF-alpha” for “against IL-1-beta”, “in CD14,” for “in CD14”, “protocol. The negative” for “protocol. Negative”, “DMSO. Cells were treated with compound (at the indicated concentrations) or 10 μM pomalidomide.” for “DMSO.”
as §2, §3

[5] = tested on: IL-6; test: IL-6 in LPS-induced PBMCs / CD14+ monocytes, Meso Scale assay; details: 0.1 μM
Method: as §1, with “FIG. 3” for “FIG. 2”, “against IL-6” for “against IL-1-beta”, “in CD14,” for “in CD14”, “DMSO. Cells were treated with compound (at the indicated concentrations) or 10 μM pomalidomide.” for “DMSO.”
as §2, §3

[6] = tested on: Molm-13 cells; test: Cell viability assay (CellTiter-Glo), Molm-13 cells; details: Homo sapiens, 72 h, 3 days; for viability at 10 µM: MOLM-13, 10 μM; for viability at 1 µM: MOLM-13, 1 μM
Method: FIG. 5 represents antiproliferative activity in Molm-13 cells. The cells were incubated with Compound 1, 2, or 3 (at the indicated concentration), DMSO, or pomalidomide. Compound activity was measured based on the signal from remaining viable cells.
as §4, §5

[7] = molecular target: T1, GSPT1 (Homo sapiens, UniProt P15170); test: Western blot analysis of GSPT1 protein levels in Jurkat cells; details: DMSO = 100.00; for GSPT1 protein level (% of DMSO control) at 0.1 µM: 100 nM compound; for GSPT1 protein level (% of DMSO control) at 1 µM: 1 uM compound
T1 construct: Whole cell extract was prepared with RIPA buffer according to manufacturer's protocol; endogenous in cells; host or cells: Jurkat cells
Method: FIG. 1 represents the activity against CK1α, ikaros, and GPST1 in Jurkat cells, plated in 96 well plates. Cells were pretreated with compounds for 4 h and then lysed and protein levels measure via Western blots. The negative control wells were treated with DMSO. Cells were treated with the indicated compound at the indicated concentration. Compound activity is measured as a decrease in GSPT1 protein levels.
Western Blot Protocol: Cell lines were grown in RPMI 1640 supplemented with streptomycin, penicillin and 10% fetal bovine serum.
Jurkat cells were cultured at approximately 10^6 cells per mL, DMSO or the indicated compound was added to the cells and allowed to incubate for 6-8 h. Whole cell extract was prepared with RIPA buffer according to manufacturer's protocol (Pierce (Dallas, Tex.)). Briefly, ˜2×10^6 cells were washed once in PBS, the cell pellet was resuspended in RIPA buffer and allowed to incubate for 15 min on ice. Cell debris was removed by centrifugation and the cleared whole cell lysate was transferred to a new tube for further analysis.
For western blot analysis, whole cell extracts were separated on 4-12% SDS-polyacrylamide gels, transferred to nitrocellulose and probed with the indicated primary antibodies. Membranes were subsequently washed and probed with the appropriate horseradish peroxidase (HRP)-conjugated secondary antibody. Membranes were subsequently washed and probed with the appropriate IRDye secondary antibodies (LI-COR). The signal was detected using the Odyssey Imaging System (LI-COR).

T1 sequence (P15170 whole entry): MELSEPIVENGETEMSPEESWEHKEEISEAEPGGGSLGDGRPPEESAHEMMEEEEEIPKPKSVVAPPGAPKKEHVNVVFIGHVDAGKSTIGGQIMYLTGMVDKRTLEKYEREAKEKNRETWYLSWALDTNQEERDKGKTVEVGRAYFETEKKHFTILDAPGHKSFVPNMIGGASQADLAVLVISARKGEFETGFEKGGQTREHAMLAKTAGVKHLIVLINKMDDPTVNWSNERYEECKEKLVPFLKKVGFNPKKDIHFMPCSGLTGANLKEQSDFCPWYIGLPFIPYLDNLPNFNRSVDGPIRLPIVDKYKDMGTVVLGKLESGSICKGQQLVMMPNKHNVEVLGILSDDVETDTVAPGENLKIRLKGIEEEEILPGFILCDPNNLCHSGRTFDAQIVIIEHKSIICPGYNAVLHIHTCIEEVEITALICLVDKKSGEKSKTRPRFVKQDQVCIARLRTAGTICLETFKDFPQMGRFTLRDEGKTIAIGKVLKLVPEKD

| GSPT1 protein level (% of DMSO control) at 0.1 µM [7] [%] | GSPT1 protein level (% of DMSO control) at 1 µM [7] [%] | Structure (SMILES) | inhibition at 0.1 µM [1] [%] | fold induction at 0.1 µM [2] | viability at 1 µM [3] [%] | viability at 10 µM [3] [%] | inhibition at 0.1 µM [4] [%] | inhibition at 0.1 µM [5] [%] | viability at 10 µM [6] [%] | viability at 1 µM [6] [%] |
| --- | --- | --- | --- | --- | --- | --- | --- | --- | --- | --- |
| 22.1 | 5.56 | Cc1ccc(NC(=O)NCc2cc3c(cc2F)C(=O)N([C@H]2CCCC(=O)NC2=O)C3)cc1Cl [Compound 22, (S)-1-(3-chloro-4-methylphenyl)-3-((2-(2,7-dioxoazepan-3-yl)-6-fluoro-1-oxoisoindolin-5-yl)methyl)urea] | 82 | 2 | 11.5 | 4.04 | 74 | 58 | – | 2.45 |
| 147 | 105 | Cc1ccc(NC(=O)NCCc2cccc3c2CN([C@H]2CCCC(=O)NC2=O)C3=O)cc1Cl [Compound 23, (S)-1-(3-chloro-4-methylphenyl)-3-(2-(2-(2,7-dioxoazepan-3-yl)-1-oxoisoindolin-4-yl)ethyl)urea] | 21 | 0.8 | – | 25.1 | 25 | 0 | 96 | – |
| 122 | 126 | Cc1ccc(NC(=O)NCCc2ccc3c(c2)CN([C@H]2CCCC(=O)NC2=O)C3=O)cc1Cl [Compound 24, (S)-1-(3-chloro-4-methylphenyl)-3-(2-(2-(2,7-dioxoazepan-3-yl)-1-oxoisoindolin-5-yl)ethyl)urea] | 26 | 0.9 | – | 2.81 | 42 | 0 | 98 | – |
| 61.6 | 20.8 | Cc1ccc(NC(=S)NCc2ccc3c(c2)CN([C@H]2CCCC(=O)NC2=O)C3=O)cc1Cl [Compound 26, (S)-1-(3-chloro-4-methylphenyl)-3-((2-(2,7-dioxoazepan-3-yl)-1-oxoisoindolin-5-yl)methyl)thiourea] | 1 | 0.8 | 46.4 | 4.54 | 3 | 0 | – | 79 |

The remaining lines, values behind:

| Structure (SMILES) | GSPT1 protein level (% of DMSO control) at 0.1 µM [7] [%] | GSPT1 protein level (% of DMSO control) at 1 µM [7] [%] | inhibition at 0.1 µM [1] [%] | fold induction at 0.1 µM [2] | viability at 1 µM [3] [%] | viability at 10 µM [3] [%] | inhibition at 0.1 µM [4] [%] | inhibition at 0.1 µM [5] [%] | viability at 10 µM [6] [%] | viability at 1 µM [6] [%] |
| --- | --- | --- | --- | --- | --- | --- | --- | --- | --- | --- |
| Cc1ccc(N(C)C(=O)NCc2ccc3c(c2)CN([C@H]2CCCC(=O)NC2=O)C3=O)cc1Cl [Compound 21, (S)-1-(3-chloro-4-methylphenyl)-3-((2-(2,7-dioxoazepan-3-yl)-1-oxoisoindolin-5-yl)methyl)-1-methylurea] | 126 | 134 | 27 | 0.9 | 95.5 | 45.3 | 20 | 18 | 25 | – |
| O=C1CCC[C@H](N2Cc3cc(CNC(=O)C(F)(F)c4ccc(F)cc4)ccc3C2=O)C(=O)N1 [Compound 25, (S)—N-((2-(2,7-dioxoazepan-3-yl)-1-oxoisoindolin-5-yl)methyl)-2,2-difluoro-2-(4-fluorophenyl)acetamide] | 98.1 | 63.5 | 38 | 1.4 | 88.1 | 26.6 | 36 | 12 | 96 | – |
| Cc1ccc(NC(=O)NCc2ccc3c(c2)C(=O)N([C@H]2CCCC(=O)NC2=O)C3=O)cc1Cl [Compound 27, (S)-1-(3-chloro-4-methylphenyl)-3-((2-(2,7-dioxoazepan-3-yl)-1,3-dioxoisoindolin-5-yl)methyl)urea] | 51.4 | 23.8 | 9 | 1.1 | 101 | 28.2 | 19 | 0 | 89 | – |
